Data from patent US20230263851A1, “PROTECTIVE FORMULATIONS” (priority 2022, published 2023).

Test system: upside-down jellyfish, family Cassiopeidae
Assay: In vivo field study: perceived stinging sensation after contact with upside-down jellyfish
Settings: for Sting score, Left calf: skin location left calf; for Average Sting Score: average over tested skin locations; for Sting score, Lower arm, left: perceived sting: 0 no sting, compound in SPF15 TeekaTan oil-in-water sunscreen base, skin location lower arm; for Reduction of the stinging sensation (in words): summary of the field study; for Sting score, Upper arm, left: skin location upper arm
Method: An in-vivo field study was performed using upside-down jellyfish, family Cassiopeidae. Rubidium iodide and dl-menthol were compared to lanthanide salts and another alkali salt, cesium iodide, for their ability to reduce the dermal irritation following contact with stinging Cnidaria. The base formulation was a commercial SPF15 “TeekaTan™” chemical oil-in-water sunscreen. The null was bare skin. The test subjects reported their perceived stinging sensation from the venomous cassiosomes as no sting (score 0), mild sting (score 1), definite sting (score 2).

[1] = 0 no sting, 1 mild sting, 2 definite sting, SPF15 sunscreen base

Compound | Sting score, Left calf [1] | Sting score, Left cheek (face) (0 no sting, 1 mild sting, 2 definite sting, SPF15 sunscreen base, skin location left cheek (face)) | Sting score, Left side of chest, underarm (0 no sting, 1 mild sting, 2 definite sting, SPF15 sunscreen base, skin location left side of chest, underarm) | Sting score, Left side of lips, upper and lower (0 no sting, 1 mild sting, 2 definite sting, SPF15 sunscreen base, skin location left side of lips, upper and lower) | Sting score, Right arm joint (0 no sting, 1 mild sting, 2 definite sting, SPF15 sunscreen base, skin location right arm joint) | Sting score, Right cheek (face) (0 no sting, 1 mild sting, 2 definite sting, SPF15 sunscreen base, skin location right cheek (face)) | Sting score, Right side of chest, underarm (0 no sting, 1 mild sting, 2 definite sting, SPF15 sunscreen base, skin location right side of chest, underarm) | Sting score, Stomach (0 no sting, 1 mild sting, 2 definite sting, SPF15 sunscreen base, skin location stomach) | Average Sting Score [1] | Sting score, Lower arm, left (1 mild sting, 2 definite sting) | Reduction of the stinging sensation (in words) | Sting score, Upper arm, left [1] | Sting score, Left arm joint (0 no sting, 1 mild sting, 2 definite sting, SPF15 sunscreen base, skin location left arm joint)
CC(C)[C@@H]1CC[C@@H](C)C[C@H]1O (racemic) [DL-Menthol, DL menthol] | 0 | 0 | 0 | 0 | 0.75 | 0 | 0 | 0 | 0.23 | 0 | second most effective compound tested |  | 
[Cs+].[I-] [CsI, cesium iodide, reference compound] |  |  |  |  |  |  |  |  | 2.00 |  | did not appreciably reduce the stinging sensation | 2 | 
[Cl][Nd]([Cl])[Cl] [NdCl3, reference compound] |  |  |  |  |  |  |  |  | 2.00 | 2 |  |  | 
[Cl][Pr]([Cl])[Cl] [PrCl3, reference compound] |  |  |  |  |  |  |  |  | 1.00 | 2 |  | 0 | 
[I-].[Rb+] [RuI, rubidium iodide] | 0 |  |  |  |  |  |  |  | 0.00 | 0 |  | 0 | 0
